Test results taken from patent US20120190751A1, “COMPOUNDS FOR TREATMENTS OF INFLAMMATION” (ANA-MAR AB, priority 2009, published 2012).
Counter-ions that a name gives are not always drawn. Like-named read-outs stand apart in the source and are kept apart here.

Key:
5HT2B receptor = 5HT2B receptor (Homo sapiens, UniProt P41595); conditions: cited from earlier work
rat synoviocytes = assay: IL-6 release from LPS-stimulated rat synoviocytes; type: cell-based; conditions: 72 hours; for IL-6 release on agonist stimulation: 1 μM agonist in the presence of LPS 50 ng/ml; for IL-6 release induced by 5-HT and LPS: 1 μM 5-HT + LPS 50 ng/ml, test substance 0.1, 1 or 10 μM, FIG. 7A
Experimental: Pannus from the inflamed knee of rats with antigen-induced arthritis (AIA) (see description of this model below; Andersson, S. E et al., (1998), J. Rheumatology 25: 1772-1777) was isolated three to five days after challenge, stored in PBS supplemented with 100 U/ml Penicillin-Streptomycin (PEST, Invitrogen Corporation) and 2.5 μg/ml Fungizone (Amphotericin B, Invitrogen) until it was further processed within a couple of hours. The PBS was discarded and the tissue cut in small pieces followed by digestion in a collagenase solution (400 U/ml; type 1 CLS-1, Worthington) for 3 hours at 37° C., 5% CO2. The suspension was filtered through a nylon mesh (70 μm), washed with tissue culture medium (RPMI-1640 with L-glutamine, Invitrogen, supplemented with 10% fetal bovine serum (FBS) and 100 U/ml PEST and 2.5 μg/ml Fungizone) and centrifuged (257 g). The cells were resuspended in tissue culture medium and seeded in cell culture flasks (T25, TPP). After overnight culture, nonadherent cells were removed by exchanging the medium, the cells were incubated at 37° C., 5% CO2, the medium was exchanged every third day until confluence was reached (7-10 days). The culture consisted of a mixed cell population with the principal constituents being fibroblasts and macrophages (Andersson, S. E. et al. (2000), Eur. J. Pharm. Sci 9: 333-343).
The cells were counted and reseeded at a density of 10000 cells/0.2 ml in 96-well cell culture plates (Nunc). After overnight culture the cells were stimulated with 50 ng/ml Lipopolysaccharide (LPS, E. coli 055:B5, Sigma) with simultaneous addition of 0.1, 1 and 10 μM N-(2-chloro-3,4-dimethoxybenzylideneamino)guanidine and 1 μM of 5-HT2 receptor agonists (triplicates). The cells were incubated for 72 hours after which the supernatants were collected and analyzed for IL-6 (OptEIA™ Set Rat IL-6). The effect of treatment on cell viability was determined using the cell proliferation reagent, WST-1 (Roche Diagnostics).
Inflamed knee joints of rats with antigen-induced arthritis (AIA) were dissected four days after intra-articular challenge with antigen. Freshly isolated pannus tissue was collected in phosphate-buffered saline (PBS) supplemented with 100 U/ml penicillin, streptomycin (PEST, Invitrogen) and 2.5 μg/ml Fungizone (Amphotericin B, Invitrogen), finely minced with a pair of scissors and digested with 400 U/ml collagenase (type 1 CLS-1, Worthington) in RPMI 1640 (Gibco) supplemented with PEST and fungizone (2.5 μg/ml) for 3 hours. The cell suspension was filtered through a 70 μm nylon mesh and the cells collected by centrifugation at 257×g, 10 min. The cells were resuspended in RPMI 1640 supplemented with 10% FBS (Gibco), PEST and fungizone (culture medium), plated in T25 flasks (TPP Cat#90026). After overnight incubation nonadherent cells were removed and the culture medium was replaced every third day until the cells approached confluency (normally achieved within 7-10 days). At near-confluency, the cells were washed with PBS and harvested by trypsination. After washing in PBS the cells were resuspended in culture medium and seeded at 10.000 cells/well/0.2 ml in 96 well plates (Nunc cat#167008). After overnight culture the culture medium was replaced with fresh medium and 50 ng/ml LPS (Sigma, L6529) together with different concentrations of 5-HT, 5-HT2 receptor agonists and/or antagonists and N-(2-chloro-3,4-dimethoxybenzylideneamino)guanidine. The cells were incubated for 72 hours after which the supernatants were collected and analyzed for IL-6 (BD OptEIA™ Set). The effect of treatment on cell viability was determined using the cell proliferation reagent, WST-1 (Roche Diagnostics). In another experiment rat synoviocytes were incubated with 50 ng/ml LPS for 2 or 22 hours were after the levels of 5-HT was analysed in the cell culture medium using a Serotonin ELISA kit (IBL International, RE59121). We also incubated rat synoviocytes with 5-HT (10 μM) and measured the gene expression of 5-HT2B and 5-HT2C.

[1] = system: antigen-induced arthritis; conditions: Andersson et al. 2000; cited from earlier work
[2] = 5HT2B receptor antagonists, Table 1

Chain of 5HT2B receptor (P41595 whole entry): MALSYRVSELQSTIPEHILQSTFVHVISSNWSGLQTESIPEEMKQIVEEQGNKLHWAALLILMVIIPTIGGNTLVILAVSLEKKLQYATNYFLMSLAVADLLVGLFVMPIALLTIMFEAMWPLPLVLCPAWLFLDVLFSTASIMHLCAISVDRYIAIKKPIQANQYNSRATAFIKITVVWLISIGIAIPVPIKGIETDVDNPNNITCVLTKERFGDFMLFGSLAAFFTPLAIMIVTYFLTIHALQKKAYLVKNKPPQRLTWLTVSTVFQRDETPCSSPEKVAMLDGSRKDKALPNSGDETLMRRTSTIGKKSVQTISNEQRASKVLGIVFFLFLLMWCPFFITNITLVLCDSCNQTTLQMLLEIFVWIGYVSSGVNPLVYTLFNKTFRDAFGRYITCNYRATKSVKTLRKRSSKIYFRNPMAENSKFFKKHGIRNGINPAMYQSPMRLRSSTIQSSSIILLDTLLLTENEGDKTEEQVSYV

Compound | Affinity (5HT2B receptor; [2]) | other results
CN1CCC2CN3CCc4cccc(c43)C2C1 (single isomer, unassigned; (+)) [SDZ SER-082, (+)-cis-4,5,7a,8,9,10,11,11a-octahydro-7H-10-methylindolo[1,7-bc][2,6]-naphthyridine] | 6.7 pKi | –
CC(N)Cc1c[nH]c2ccc(OCc3cccs3)cc12 (stereo not drawn) [BW 723C86] | – | IL-6 release on agonist stimulation (rat synoviocytes): induces a response in IL-6 production
Cc1cc([N+](=O)[O-])c(N2CCN(Cc3ccccc3)CC2)cc1N [EGIS-7625, 1-benzyl-4-[(2-nitro-4-methyl-5-amino)-phenyl]-piperazine] | 9.0 pKi | –
NCCc1c[nH]c2ccc(O)cc12 [Example 5-HT, 5-Hydroxytryptamine] | – | IL-6 release on agonist stimulation (rat synoviocytes): clear increase in IL-6 release
CC(O)C(C)OC(=O)[C@@H]1C[C@@H]2c3cccc4c3c(cn4C(C)C)C[C@H]2N(C)C1.O=C(O)/C=C\C(=O)O (stereo partly drawn) [LY53857, 6-Methyl-1-(1-methylethyl)ergoline-8β-carboxylic acid 2-hydroxy-1-methylpropyl ester maleate salt] | – | Affinity (5HT2B receptor): 8.2 pKi
CC(O)C(C)OC(=O)C1CC2c3cccc4[nH]cc(c34)CC2N(C)C1 (stereo not drawn) [LY86057] | 7.9 pKi | –
OC(c1ccccc1)C1CCN(CCc2ccccc2)CC1 (stereo not drawn) [MDL-11,939, α-phenyl-1-(2-phenylethyl)-4-piperidinemethanol] | 5.5 pKi | –
COc1cc(OC)c(C(=O)CCCCN2CCC3(CC2)NC(=O)NC3=O)cc1NS(=O)(=O)c1ccc(C(F)(F)F)cc1 [RS-102221] | 6.0-6.1 pKi | –
CC(C)c1cc(-c2ccc(F)c3ccccc23)nc(N)n1 [RS-127445-190] | 9.5 pKi | –
CC(C)c1cc(-c2ccc(F)c3ccccc23)nc(N)n1 [RS-127445] | – | IL-6 release induced by 5-HT and LPS (rat synoviocytes): clearly reduced the IL-6 release; Affinity (5HT2B receptor): 9.0 pKi
Cn1ccc2cc(NC(=O)Nc3cccnc3)ccc21 [SB 200646, N-(1-Methyl-1H-indol-5-yl)-N′-3-pyridinylurea] | 7.4 pKi | –
Cn1ccc2cc3c(cc21)CCN3C(=O)Nc1cccnc1 [SB 206553, 5-methyl-1-(3-pyridylcarbamoyl)-1,2,3,5-tetrahydrolpyrrolo[2,3-f]indole] | 7.6-8.5 pKi | –
Cc1cc2c(cc1Cl)N(C(=O)Nc1cccc3ncccc13)CC2 [SB 215505, 6-chloro-5-methyl-1-(5-quinolylcarbamoyl)indoline] | 8.3 pKi | –
CSc1cc2c(cc1C(F)(F)F)N(C(=O)Nc1cccnc1)CC2 [SB 221284, 5-(methylthio)-1-(3-pyridylcarbamoyl-6-trifluoromethyl)indoline] | 8.6 pKi | –
Cc1nc(-c2ccc(-c3ccc(C(=O)N4CCc5cc6c(cc54)C4(CCN(C)CC4)CO6)cc3)c(C)c2)no1 [SB 224289, 1′-methyl-5-[[2′-methyl-4′-(5-methyl-1,2,4-oxadiazol-3-yl)biphenyl-4-yl]carbonyl]-2,3,6,7-tetrahydrospiro[furo[2,3-f]indole-3,4′-piperidine hydrochloride] | 5.9 pKi | –
COc1cc2c(cc1C(F)(F)F)N(C(=O)Nc1cc(F)cc(-c3cccnc3)c1)CC2 [SB 228357, 1-5[-fluoro-3-(3-pyridyl)phenyl-carbamoyl]-5-methoxy-6-trifuoromethylindoline] | 8.0-8.1 pKi | –

Compound | Affinity (5HT2B receptor; [2]) | other results
Cc1cc2c(cc1Cl)N(C(=O)Nc1ccc(Oc3cccnc3C)nc1)CC2 [SB 242084, 6-chloro-5-methyl-1-[6-(-methylpyridin-3-yloxy)pyridin-3-ylcarbomyl]indoline] | – | IL-6 release induced by 5-HT and LPS (rat synoviocytes): clearly reduced the IL-6 release; Affinity (5HT2B receptor): 6.8-7.0 pKi
COc1ccc2cccc(CCNC(C)=O)c2c1 [agomelatine, N-[2-(7-methoxynaphthalen-1-yl)ethyl]acetamide] | 6.6 pKi | –
CC(C)n1cc2c3c(cccc31)[C@H]1CC(C(=O)NC3CCCCC3)CN(C)[C@@H]1C2 (stereo partly drawn) [amesergide, N-Cyclohexyl-1-isopropyl-6-methylergoline-8-carboxamide] | 8.0 pKi | –
CN1CCc2cccc3c2C1Cc1ccc(O)c(O)c1-3 (stereo not drawn) [apomorphine, 5,6,6a,7-Tetrahydro-6-methyl-4H-dibenzo[de,g]quinolin-10,11-diol] | 6.9 pKi | –
CC(C)C[C@H]1C(=O)N2CCC[C@H]2[C@]2(O)O[C@](NC(=O)[C@@H]3C=C4c5cccc6[nH]c(Br)c(c56)C[C@H]4N(C)C3)(C(C)C)C(=O)N12 [bromocriptine] | 7.3 pKi | –
CN(Cc1cnc2nc(N)nc(N)c2n1)c1ccc(C(=O)N[C@@H](CCC(=O)O)C(=O)O)cc1 [methotrexate] | – | effect in the AIA model (literature) [1]: anti-arthritic effect
NCCC(Oc1ccc(C(F)(F)F)cc1)c1ccccc1 (stereo not drawn) [norfluoxetine] | 5.3 pKi | –
CCCCN1CCC(CNC(=O)c2c3n(c4ccccc24)CCCO3)CC1 [piboserod, N-((1-Butyl-4-piperidyl)-methyl)-3,4-dihydro-2H-(1,3)oxazino(3,2-a)-indole-10-carboxamide] | 6.6 pKi | –
c1cnc(N2CCN(Cc3ccc4c(c3)OCO4)CC2)nc1 [piribedil, 2-[4-(1,3-benzodioxol-5-ylmethyl)piperazin-1-yl]pyrimidine] | 5.9 pKi | –
Cc1nc2sccn2c(=O)c1CCN1CCC(=C(c2ccc(F)cc2)c2ccc(F)cc2)CC1 [ritanserin, 4-[2-[4-[bis(4-fluorophenyl)methylidene]-1-piperidyl]ethyl]-3-methyl-9-thia-2,6-diazabicyclo[4.3.0]nona-1,3,7-trien-5-one] | 8.7-9.2 pKi | –
Oc1ccc2[nH]cc(CCCCN3CC=C(c4ccccc4)CC3)c2c1 [roxindole, 3-[4-(4-phenyl-3,6-dihydro-2H-pyridin-1-yl)butyl]-1H-indol-5-ol] | 7.5 pKi | –
COc1cccc(CCc2ccccc2OCC(CN(C)C)OC(=O)CCC(=O)O)c1 (stereo not drawn) [sarpogrelate, 4-[1-dimethylamino-3-[2-[2-(3-methoxyphenyl)ethyl]phenoxy]-propan-2-yl]oxy-4-oxo-butanoic acid] | 6.6 pKi | –
O=C(CCCN1CCC2(CC1)C(=O)NCN2c1ccccc1)c1ccc(F)cc1 [spiperone, 8-[4-(4-fluorophenyl)-4-oxo-butyl]-1-phenyl-1,3,8-triazaspiro[4.5]decan-4-one] | 5.9-6.5 pKi | –
O=C1NCN(c2ccccc2)C12CCN(CC1COc3ccccc3O1)CC2 (stereo not drawn) [spiroxatrine, 8-(7,10-dioxabicyclo[4.4.0]deca-1,3,5-trien-8-ylmethyl)-4-phenyl-2,4,8-triazaspiro[4.5]decan-1-one] | 6.3-6.8 pKi | –
CCN(CC)C(=O)N[C@H]1C[C@@H]2c3cccc4[nH]cc(c34)C[C@H]2N(C)C1 [terguride, N,N-diethyl-N′-[(8α)-6-methylergolin-8-yl]urea] | 8.2 pKi | –
